In brackets after ≈: the same amount, converted by molar mass.
Key:
MB5890 (OprD+, efflux-) = assay: microbe, parasite or virus in culture; assay type: cell-based, Pseudomonas aeruginosa
From the text: (§1) The strain background is Pseudomonas aeruginosa PAO1. A wild-type (M135919) and an isogenic strain in which multiple efflux pumps have been disrupted genetically were used. The MBL IMP-1, obtained from a clinical isolate was introduced into the strain pair by the following process:
(§2) The plasmid DNA was transformed into parental MB5919 (oprD+, efflux+, inducible AmpC) and MB5890 (oprD+, efflux−, inducible AmpC) isogenic strains by electroporation.
(§3) Minimum inhibitory concentrations of sentinel antibiotics were performed to quality control the new strains.

MB5919 (OprD+, efflux+) = assay: microbe, parasite or virus in culture; assay type: cell-based, Pseudomonas aeruginosa
From the text: as §1, §2, §3

[1] = system: MB9798 (efflux+ MB5919 Trans IMP1 plasmid); assay: microbe, parasite or virus in culture; assay type: cell-based, Pseudomonas aeruginosa
From the text: as §1, §2, §3

[2] = system: MB9799 (efflux- MB5890 Trans IMP1 plasmid); assay: microbe, parasite or virus in culture; assay type: cell-based, Pseudomonas aeruginosa
From the text: as §1, §2, §3

[3] = system: MB9861 (Efflux+ MB5919 Trans pFlp-Vim1 plasmid); assay: microbe, parasite or virus in culture; assay type: cell-based, Pseudomonas aeruginosa
[4] = system: MB9862 (efflux- MB5890 trans pFlp-Vim1); assay: microbe, parasite or virus in culture; assay type: cell-based, Pseudomonas aeruginosa
[5] = system: efflux+ MB5919 Trans pFlp-Vim2 plasmid; assay: microbe, parasite or virus in culture; assay type: cell-based, Pseudomonas aeruginosa
[6] = system: efflux- MB5890 Trans pFlp-Vim2 plasmid; assay: microbe, parasite or virus in culture; assay type: cell-based, Pseudomonas aeruginosa
NDM-1 = NDM-1 (Klebsiella pneumoniae, UniProt C7C422); assay: biochemical; assay type: biochemical; details: CCF2-FA fluorescence assay, 2 hours at 25° C.
How it was run: (§4)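 Enzyme (NDM-1 1 pM, IMP-1 2 pM, VIM-1 30 pM final) and 1.25 μM CCF2-FA incubated with inhibitor (20 to 0.00063 μM) for 2 h at 25° C in 100 mM KH2PO4 pH 7, 0.005% Tween-20, 10 μM ZnSO4. Fluorescence read at ex 405/em 460 nm; IC50 by 4-parameter fit.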

IMP-1 = IMP-1 (Serratia marcescens, UniProt P52699); assay: biochemical; details: CCF2-FA fluorescence assay, 2 hours at 25° C.; read-out: IMP1 IC50
How it was run: as §4

VIM-1 = VIM-1 (Pseudomonas aeruginosa (strain ATCC 15692 / DSM 22644 / CIP 104116 / JCM 14847 / LMG 12228 / 1C / PRS 101 / PAO1), UniProt A0A0F7KYQ8); assay: biochemical; details: CCF2-FA fluorescence assay, 2 hours at 25° C.; read-out: VIM1 IC50
How it was run: as §4

VIM-2 = VIM-2 (Escherichia coli, UniProt Q5U7L7); assay: biochemical; details: CCF2-FA fluorescence assay; read-out: VIM2 IC50
[7] = system: Escherichia coli expressing NDM-1 (CLB30016); assay type: cell-based; details: with imipenem 1 μg/ml; 95% inhibition of bacterial growth
How it was run: (§5)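 Read-out is absorbance after 22–24 h at 35 °C, with MITC95 taken as the lowest inhibitor concentration that, alongside imipenem at 1 μg/ml, suppresses 95% of bacterial growth. Inocula came from saline-suspended colonies diluted 1:100 into 1.1× CAMHB.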

[8] = system: Klebsiella pneumoniae expressing VIM-1 (IHMA599644); assay type: cell-based; details: with imipenem 1 μg/ml; 95% inhibition of bacterial growth
How it was run: as §5

[9] = system: Serratia marcescens expressing IMP-1 (CL5741); assay type: cell-based; details: with imipenem 1 μg/ml; 95% inhibition of bacterial growth
How it was run: as §5

[10] = system: P. aeruginosa MB9798 (efflux+, IMP-1 plasmid); details: for MB9798 MITC95 P. aeruginosa uM Efflux WT: efflux + (MB9798) strain, imipenem at 2 μg/mL, in the presence of a class A, C, D serine β-lactamase inhibitor closely related to relebactam; for Efflux ratio: fold difference between efflux+ (MB9798) and efflux− (MB9799) strains
How it was run: (§6)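 Isogenic P. aeruginosa PAO1 strains (efflux+ and multiple-efflux-pump-disrupted) carrying plasmid IMP-1, with inducible AmpC, tested by broth microdilution. Imipenem and/or ceftazidime fixed, usually at CLSI breakpoint, plus fixed class A/C β-lactamase inhibitor; titrated MBL inhibitor concentration restoring susceptibility recorded and compared between strains as efflux fold difference.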

[11] = system: P. aeruginosa MB9799 (efflux-, IMP-1 plasmid); assay type: cell-based, Pseudomonas aeruginosa; details: efflux − (MB9799) strain; imipenem at 2 μg/mL; in the presence of a class A, C, D serine β-lactamase inhibitor closely related to relebactam
How it was run: as §6

[12] = MB9798, OprD+, efflux+, MB5919 Trans IMP1 plasmid (CL 5673)
[13] = MB9799, OprD+, efflux−, MB5890 Trans IMP1 plasmid (CL 5673)
[14] = MB9861, OprD+, Efflux+, MB5919 Trans pFlp-Vim1 plasmid
[15] = MB9862, OprD+, efflux−, MB5890 trans pFlp-Vim1
[16] = OprD+, efflux+, MB5919 Trans pFlp-Vim2 plasmid
[17] = OprD+, efflux−, MB5890 Trans pFlp-Vim2 plasmid

IMP-1, sequence (P52699 whole entry, looked up, species assumed): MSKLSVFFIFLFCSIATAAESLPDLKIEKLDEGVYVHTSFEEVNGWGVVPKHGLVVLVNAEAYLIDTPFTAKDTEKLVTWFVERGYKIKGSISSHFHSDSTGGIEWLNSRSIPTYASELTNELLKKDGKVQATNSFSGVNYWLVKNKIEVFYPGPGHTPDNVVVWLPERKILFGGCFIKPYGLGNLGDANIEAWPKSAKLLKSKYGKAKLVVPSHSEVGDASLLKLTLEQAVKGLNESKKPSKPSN
NDM-1, sequence (C7C422 whole entry, looked up, species assumed): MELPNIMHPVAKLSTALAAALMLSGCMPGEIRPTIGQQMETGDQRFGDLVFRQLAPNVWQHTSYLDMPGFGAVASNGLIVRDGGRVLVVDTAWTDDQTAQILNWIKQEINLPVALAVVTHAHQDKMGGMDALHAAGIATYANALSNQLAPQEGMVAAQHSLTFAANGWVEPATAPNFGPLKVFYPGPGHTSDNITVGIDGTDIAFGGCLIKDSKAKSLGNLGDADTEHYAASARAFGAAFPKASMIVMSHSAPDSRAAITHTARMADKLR

SMILES	MIC (MB5890 (OprD+, efflux-); MB5890, OprD+, efflux−)	MIC (MB5919 (OprD+, efflux+); MB5919, OprD+, efflux+)	MIC [1, 12]	MIC [2, 13]	MIC [3, 14]	MIC [4, 15]	MIC [5, 16]	MIC [6, 17]	IC50 (NDM-1)	IC50 (IMP-1)	IC50 (VIM-1)	IC50 (VIM-2)	CLB30016 E. coli MITC95 NDM [7]	IHMA599644 K. pneumoniae MITC95 VIM [8]	CL5741 S. marcescens MITC95 IMP [9]	MB9798 MITC95 P. aeruginosa uM Efflux WT [10]	Efflux ratio [10]	MB9799 MITC95 P. aeruginosa uM Efflux Mutant [11]	also measured
CC[C@H]1OC(=O)[C@H](C)[C@@H](O[C@H]2C[C@@](C)(OC)[C@@H](O)[C@H](C)O2)[C@H](C)[C@@H](O[C@@H]2O[C@H](C)C[C@H](N(C)C)[C@H]2O)[C@](C)(O)C[C@@H](C)CN(C)[C@H](C)[C@@H](O)[C@]1(C)O [Azithromycin]	–	–	–	–	–	–	–	–	–	–	–	–	–	–	–	–	–	–	MIC (MB5890 (OprD+, efflux-); Pseudomonas aeruginosa): 1 µg/mL (≈ 1.34 µM); MIC (MB5919 (OprD+, efflux+); Pseudomonas aeruginosa): 16 µg/mL (≈ 21.4 µM); MIC ([1]; Pseudomonas aeruginosa): 2 µg/mL (≈ 2.67 µM); MIC ([2]; Pseudomonas aeruginosa): 2 µg/mL (≈ 2.67 µM); MIC ([3]; Pseudomonas aeruginosa): 32 µg/mL (≈ 42.7 µM); MIC ([4]; Pseudomonas aeruginosa): 1 µg/mL (≈ 1.34 µM); MIC ([5]; Pseudomonas aeruginosa): 32 µg/mL (≈ 42.7 µM); MIC ([6]; Pseudomonas aeruginosa): 1 µg/mL (≈ 1.34 µM)
CC(C)(O/N=C(\C(=O)N[C@@H]1C(=O)N2C(C(=O)[O-])=C(C[n+]3ccccc3)CS[C@H]12)c1csc(N)n1)C(=O)O [CAZ, ceftazidime]	0.5 µg/mL (≈ 0.915 µM)	1 µg/mL (≈ 1.83 µM)	256 µg/mL (≈ 468 µM)	256 µg/mL (≈ 468 µM)	>256 µg/mL	>256 µg/mL	128 µg/mL (≈ 234 µM)	64 µg/mL (≈ 117 µM)	–	–	–	–	–	–	–	–	–	–	–
O=C(N[C@H](CO)[C@H](O)c1ccc([N+](=O)[O-])cc1)C(Cl)Cl [Chloramphenicol, chloramphenicol]	–	–	–	–	–	–	–	–	–	–	–	–	–	–	–	–	–	–	MIC (MB5890 (OprD+, efflux-); Pseudomonas aeruginosa): 1 µg/mL (≈ 3.09 µM); MIC (MB5919 (OprD+, efflux+); Pseudomonas aeruginosa): > 64 µg/mL; MIC ([1]; Pseudomonas aeruginosa): > 64 µg/mL; MIC ([2]; Pseudomonas aeruginosa): 1 µg/mL (≈ 3.09 µM); MIC ([3]; Pseudomonas aeruginosa): > 64 µg/mL; MIC ([4]; Pseudomonas aeruginosa): 2 µg/mL (≈ 6.19 µM); MIC ([5]; Pseudomonas aeruginosa): > 64 µg/mL; MIC ([6]; Pseudomonas aeruginosa): 1 µg/mL (≈ 3.09 µM)
NCC=C1CCN(c2ccc(S(=O)(=O)NC[C@H](O)CN)c(S(N)(=O)=O)c2-c2nn[nH]n2)CC1 [Example 204, (R)—N1-(3-amino-2-hydroxypropyl)-4-(4-(2-aminoethylidene)piperidin-1-yl)-3-(2H-tetrazol-5-yl)benzene-1,2-disulfonamide]	–	–	–	–	–	–	–	–	0.97 nM	1.55 nM	0.16 nM	3.44 nM	0.78 µM	1.56 µM	1.56 µM	0.78 µM	1.00	0.78 µM	–
NC[C@@H](O)CNS(=O)(=O)c1ccc(N2CC[C@@H](N)[C@@H](F)C2)c(-c2nn[nH]n2)c1S(N)(=O)=O [Example 207, N1-((R)-3-amino-2-hydroxypropyl)-4-((3S,4R)-4-amino-3-fluoropiperidin-1-yl)-3-(2H-tetrazol-5-yl)benzene-1,2-disulfonamide]	–	–	–	–	–	–	–	–	15 nM	25.2 nM	0.86 nM	25.6 nM	0.39 µM	0.78 µM	0.20 µM	1.56 µM	1.00	1.56 µM	–
NCCOCC1CCN(c2ccc(S(=O)(=O)NC[C@H](O)CN)c(S(N)(=O)=O)c2-c2nn[nH]n2)CC1 [Example 208]	–	–	–	–	–	–	–	–	1.05 nM	1.84 nM	0.11 nM	1.19 nM	1.56 µM	3.13 µM	0.78 µM	0.78 µM	1.00	0.78 µM	–
NCCOC1CCN(c2ccc(S(=O)(=O)NC[C@H](O)CN)c(S(N)(=O)=O)c2-c2nn[nH]n2)CC1 [Example 209, (R)—N1-(3-amino-2-hydroxypropyl)-4-(4-(2-aminoethoxy)piperidin-1-yl)-3-(2H-tetrazol-5-yl)benzene-1,2-disulfonamide]	–	–	–	–	–	–	–	–	0.96 nM	1.69 nM	0.12 nM	3.32 nM	0.78 µM	1.56 µM	1.56 µM	0.78 µM	1.00	0.78 µM	–
C[C@@H](O)[C@H]1C(=O)N2C(C(=O)O)=C(SCCN=CN)C[C@H]12 [Imipenem, imipenem]	2 µg/mL (≈ 6.68 µM)	4 µg/mL (≈ 13.4 µM)	64 µg/mL (≈ 214 µM)	32 µg/mL (≈ 107 µM)	>64 µg/mL	64 µg/mL (≈ 214 µM)	>64 µg/mL	32 µg/mL (≈ 107 µM)	–	–	–	–	–	–	–	–	–	–	–
C[C@@H](O)[C@H]1C(=O)N2C(C(=O)O)=C(S[C@@H]3CN[C@H](C(=O)N(C)C)C3)[C@H](C)[C@H]12 [Meropenem, meropenem]	0.5 µg/mL (≈ 1.3 µM)	2 µg/mL (≈ 5.22 µM)	>64 µg/mL	64 µg/mL (≈ 167 µM)	>64 µg/mL	64 µg/mL (≈ 167 µM)	>64 µg/mL	32 µg/mL (≈ 83.4 µM)	–	–	–	–	–	–	–	–	–	–	–
NC[C@@H](O)CNS(=O)(=O)c1ccc(NC2CCC(N)C2)c(-c2nn[nH]n2)c1S(N)(=O)=O (stereo partly drawn) [compound 184, N1-((R)-3-amino-2-hydroxypropyl)-4-((3-aminocyclopentyl)amino)-3-(2H-tetrazol-5-yl)benzene-1,2-disulfonamide]	–	–	–	–	–	–	–	–	19.4 nM	39.4 nM	4.61 nM	44.4 nM	0.78 µM	1.56 µM	1.56 µM	6.25 µM	2.00	3.13 µM	–
